Measurements published in the NIST ThermoML archive (doi:10.1016/j.jct.2016.11.003).
± gives the expanded uncertainty stated by the source.

What was measured:
[1] = 298 K; 101 kPa; Crystal; X-ray diffraction
[2] = xn = mol fraction of the nth substance listed; settings: 298 K, Crystal, X-ray diffraction
[3] = excess molar enthalpy (molar enthalpy of mixing); xn = mol fraction of the nth substance listed; settings: 298 K, 100 kPa, Crystal, Calvet calorimetry

For O=P([O-])([O-])[O-].[Eu+3] [europium phosphate], the mass density [1] was 5810 ± 40 kg/m3.
Work on O=P([O-])([O-])[O-].[Eu+3] [europium phosphate] + O=P([O-])([O-])[O-].[La+3] yielded a mass density ([2]; 101 kPa, x1 = 0.11) of 5130 ± 30 kg/m3, a mass density ([2]; 101 kPa, x1 = 0.23) of 5210 ± 30 kg/m3 and a mass density ([2]; 101 kPa, x1 = 0.4) of 5340 ± 30 kg/m3. The mass density ([2]; 101 kPa, x1 = 0.58) was 5470 ± 30 kg/m3, the mass density ([2]; 101 kPa, x1 = 0.71) was 5570 ± 30 kg/m3 and the mass density ([2]; 101 kPa, x1 = 0.82) was 5660 ± 30 kg/m3. For the same molecule, the mass density ([2]; 101 kPa, x1 = 0.91) was 5730 ± 30 kg/m3, the mass density ([2]; 101 kPa, x1 = 1) was 5810 ± 40 kg/m3 and the excess molar enthalpy ([3]; x1 = 0.1) was 0.452 ± 0.43 kcal/mol. It also gave an excess molar enthalpy ([3]; x1 = 0.11) of 0.234 ± 0.382 kcal/mol, an excess molar enthalpy ([3]; x1 = 0.34) of 0.129 ± 0.311 kcal/mol and an excess molar enthalpy ([3]; x1 = 0.58) of 0.203 ± 0.335 kcal/mol. The excess molar enthalpy ([3]; x1 = 0.71) was 0.0478 ± 0.263 kcal/mol.
Work on O=P([O-])([O-])[O-].[Gd+3] [gadolinium orthophosphate] yielded a mass density [1] of 5980 ± 40 kg/m3.
Work on O=P([O-])([O-])[O-].[Gd+3] [gadolinium orthophosphate] + O=P([O-])([O-])[O-].[La+3] yielded a mass density ([2]; 100 kPa, x1 = 0.11) of 5160 ± 30 kg/m3, a mass density ([2]; 100 kPa, x1 = 0.24) of 5260 ± 30 kg/m3 and a mass density ([2]; 100 kPa, x1 = 0.34) of 5340 ± 30 kg/m3. For the same molecule, the mass density ([2]; 100 kPa, x1 = 0.44) was 5440 ± 40 kg/m3, the mass density ([2]; 100 kPa, x1 = 0.55) was 5540 ± 30 kg/m3 and the mass density ([2]; 100 kPa, x1 = 0.64) was 5630 ± 30 kg/m3. The mass density ([2]; 100 kPa, x1 = 0.76) was 5740 ± 40 kg/m3, the mass density ([2]; 100 kPa, x1 = 0.84) was 5820 ± 40 kg/m3 and the mass density ([2]; 100 kPa, x1 = 0.92) was 5900 ± 40 kg/m3. For the same molecule, the mass density ([2]; 100 kPa, x1 = 1) was 5980 ± 40 kg/m3, the excess molar enthalpy ([3]; x1 = 0.24) was 0.275 ± 0.287 kcal/mol and the excess molar enthalpy ([3]; x1 = 0.44) was 0.777 ± 0.287 kcal/mol. It also gave an excess molar enthalpy ([3]; x1 = 0.55) of 0.705 ± 0.311 kcal/mol and an excess molar enthalpy ([3]; x1 = 0.76) of 0.521 ± 0.239 kcal/mol.
O=P([O-])([O-])[O-].[La+3] [lanthanum orthophosphate] gave a mass density [1] of 5060 ± 30 kg/m3.
Molecule O=P([O-])([O-])[O-].[La+3] [lanthanum orthophosphate] + O=P([O-])([O-])[O-].[Eu+3] has a mass density ([2]; 101 kPa, x2 = 0) of 5060 ± 30 kg/m3.
Molecule O=P([O-])([O-])[O-].[La+3] [lanthanum orthophosphate] + O=P([O-])([O-])[O-].[Gd+3] has a mass density ([2]; 100 kPa, x2 = 0) of 5060 ± 30 kg/m3.
